Measurements taken from patent US20040220115A1, “Medicinal compositions and their method of preparation” (priority 1999, published 2004).

Columns and labels:
[1] = Degradation of stored BEC extract, solamargine and solasonine levels by HPLC; format: physicochemical; settings: for % degradation estimated: four weeks storage under ambient conditions, estimated from the degradation study
Description: A BEC extract was obtained from Solanum Sodomaeum according to conventional extraction procedures. The degradation of the BEC extract was estimated by measuring the change in solamargine and solasonine levels over time. Although degradation of BEC could also be measured by an increase in sugar levels, in practice HPLC analysis for solamargine and solasonine allowed a more quantative analysis to be conducted and was therefore chosen for this study.

[2] = system: human ovarian cancer cells; test: Effect of washed and unwashed BEC on human ovarian cancer cells; format: cell-based
Method: The effect of washed and unwashed BEC or human ovarian cancer cells was compared. The washed and unwashed BEC were prepared as described for Example 8.
Cells (5×10^4) were transferred (200 μl chamber of a microscope slide (Lab Tek Miles Scientific). Controls received 50 μl HIFCS/TCM and experimental chambers 50 μl of solasodine glycosides (BEC) 1.5-3.8 μM/L, washed and unwashed after 7-h preincubation and incubated for a further 17 h and […] preincubation and incubated for a further 3h. Similarly, the cells were treated with the aglycone solasodine 19.4-96.8 μM/L. The cells were fixed and examined by the Papanicolaou method.

[3] = system: murine sarcoma 180; settings: cited from earlier work
[4] = Time 0 years storage of BEC extract

## C[C@@H]1CC[C@@]2(NC1)O[C@H]1C[C@H]3[C@@H]4CC=C5C[C@@H](O[C@@H]6O[C@H](CO)[C@@H](O[C@@H]7O[C@@H](C)[C@H](O)[C@@H](O)[C@H]7O)[C@H](O)[C@H]6O[C@@H]6O[C@@H](C)[C@H](O)[C@@H](O)[C@H]6O)CC[C@]5(C)[C@H]4CC[C@]3(C)[C@H]1[C@@H]2C [Solamargine, (22R,25R)-spiro-5-en-3β-yl-α-L-rhamnopyranosyl-(1->2glu)-O-α-L-rhamnopyranosyl-(1->4glu)-β-D-gluco-pyranose]
[1]; [4]
  Degradation (%) mean ± S.D.: 0%
[1]; Time 0.5 years
  Degradation (%) mean ± S.D.: 4 ± 4%
[1]; Time 1 year
  Degradation (%) mean ± S.D.: 8 ± 5%
[1]; Time 2 years
  Degradation (%) mean ± S.D.: 12 ± 7%
[1]; Time 3 years
  Degradation (%) mean ± S.D.: 15 ± 8%
[1]; Time 4 years
  Degradation (%) mean ± S.D.: 19 ± 10%
[1]; Time 5 years
  Degradation (%) mean ± S.D.: 22 ± 10%
[1]
  % degradation estimated: less than 4%

## C[C@@H]1CC[C@@]2(NC1)O[C@H]1C[C@H]3[C@@H]4CC=C5C[C@@H](O)CC[C@]5(C)[C@H]4CC[C@]3(C)[C@H]1[C@@H]2C [Solasodine, solasodine]
[2]; 3 μg/mL
  % survival: 100%
[2]; 6 μg/mL
  % survival: 100%
[2]; 9 μg/ml
  % survival: 100%
[2]; 12 μg/ml
  % survival: 100%
[2]; 15 μg/ml
  % survival: 100%
[2]; 18 μg/ml
  % survival: 100%
[2]; 24 μg/ml
  % survival: 100%
[3]; administered at levels at which BEC is effective
  effect against tumor cells: ineffective

## C[C@@H]1CC[C@@]2(NC1)O[C@H]1C[C@H]3[C@@H]4CC=C5C[C@@H](O[C@@H]6O[C@H](CO)[C@H](O)[C@H](O[C@@H]7O[C@H](CO)[C@@H](O)[C@H](O)[C@H]7O)[C@H]6O[C@@H]6O[C@@H](C)[C@H](O)[C@@H](O)[C@H]6O)CC[C@]5(C)[C@H]4CC[C@]3(C)[C@H]1[C@@H]2C [Solasonine, (22R, 25R)-spiro-5-en-3β-yl-α-L-rhamnopyranosyl-(1->2gal)-O-β-D-glucopyranosyl-(1->3gal)-β-D-galactopyranose]
[1]; [4]
  Degradation (%) mean ± S.D.: 0%
[1]; Time 0.5 years
  Degradation (%) mean ± S.D.: 5 ± 5%
[1]; Time 1 year
  Degradation (%) mean ± S.D.: 10 ± 5%
[1]; Time 2 years
  Degradation (%) mean ± S.D.: 15 ± 8%
[1]; Time 3 years
  Degradation (%) mean ± S.D.: 19 ± 9%
[1]; Time 4 years
  Degradation (%) mean ± S.D.: 21 ± 10%
[1]; Time 5 years
  Degradation (%) mean ± S.D.: 23 ± 11%
[1]
  % degradation estimated: < 5%

## C[C@H](O)[C@H](O)[C@@H](O)[C@@H](O)C=O [rhamnose]
[3]; similar concentrations of rhamnose in the absence of BEC
  effect on S180 activity: no effect
